{
  "source": "BindingDB's records for doi:10.1021/jm800566m",
  "about": "(Gsk, 2008)",
  "test": "The assay uses purified baculovirus-expressed GST-VEGFR2 interacting with biotinylated peptide substrates. HTRF is based on the proximity of europium cryptate (donor fluorophore)-labeled antiphosphotyrosine and streptavidin labeled with APC (allophycocyanin), which have been brought together by a binding reaction.",
  "settings": "pH 7.5",
  "data": [
    {"smiles": "Cc1nc2cc(N(C)c3ccnc(Nc4cccc(S(N)(=O)=O)c4)n3)ccc2n1C", "note": "[3-({4-[(1,2-dimethyl-1H-1,3-benzodiazol-5-yl)(methyl)amino]pyrimidin-2-yl}amino)benzene-1-sulfonamide]", "values": [
      {"measurement": "IC50", "value": 17, "unit": "nM"}
    ]},
    {"smiles": "Cc1nc2ccc(N(C)c3ccnc(Nc4cccc(S(N)(=O)=O)c4)n3)cc2n1C", "note": "[3-({4-[(1,2-dimethyl-1H-1,3-benzodiazol-6-yl)(methyl)amino]pyrimidin-2-yl}amino)benzene-1-sulfonamide]", "values": [
      {"measurement": "IC50", "value": 63, "unit": "nM"}
    ]},
    {"smiles": "Cc1nn(C)c2cc(N(C)c3ccnc(Nc4cccc(S(N)(=O)=O)c4)n3)ccc12", "note": "[3-({4-[(1,3-dimethyl-1H-indazol-6-yl)(methyl)amino]pyrimidin-2-yl}amino)benzene-1-sulfonamide]", "values": [
      {"measurement": "IC50", "value": 36, "unit": "nM"}
    ]},
    {"smiles": "Cc1c2ccc(N(C)c3ccnc(Nc4cccc(S(N)(=O)=O)c4)n3)cc2nn1C", "note": "[3-({4-[(2,3-dimethyl-2H-indazol-6-yl)(methyl)amino]pyrimidin-2-yl}amino)benzene-1-sulfonamide]", "values": [
      {"measurement": "IC50", "value": 5.6, "unit": "nM"}
    ]},
    {"smiles": "Cc1c2ccc(N(C)c3ccnc(Nc4cccc(S(N)(=O)=O)c4)n3)cc2nn1Cc1ccccc1", "note": "[3-({4-[(2-benzyl-3-methyl-2H-indazol-6-yl)(methyl)amino]pyrimidin-2-yl}amino)benzene-1-sulfonamide]", "values": [
      {"measurement": "IC50", "value": 2.6, "unit": "nM"}
    ]},
    {"smiles": "CN(c1ccc2cn(C)nc2c1)c1ccnc(Nc2cccc(S(N)(=O)=O)c2)n1", "note": "[3-({4-[methyl(2-methyl-2H-indazol-6-yl)amino]pyrimidin-2-yl}amino)benzene-1-sulfonamide]", "values": [
      {"measurement": "IC50", "value": 7.6, "unit": "nM"}
    ]},
    {"smiles": "Cc1n[nH]c2cc(N(C)c3ccnc(Nc4cccc(S(N)(=O)=O)c4)n3)ccc12", "note": "[3-({4-[methyl(3-methyl-1H-indazol-6-yl)amino]pyrimidin-2-yl}amino)benzene-1-sulfonamide]", "values": [
      {"measurement": "IC50", "value": 0.6, "unit": "nM"}
    ]}
  ]
}
